TGI and GI50 data for three compounds are collected here from PubChem BioAssay (NCI).

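Briefly, cells in 96-well plates were exposed to five compound concentrations for 48 h, and endpoints were estimated by linear interpolation. GI50: concentration for 50% inhibition of growth. TGI: total growth inhibition.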

What all share (assay): NCI-60 cell line screen, 48 h
The subject of assay [1] is OVCAR-4 ovarian.
Assay [2] has as its system HCC-2998 colon.
The subject of assay [3] is NCI-H522 lung.
Assay [4] deals with OVCAR-3 ovarian.
The test system of assay [5] is SN12C renal.
For assay [6], the system named is SF-295 CNS.
Assay [7] concerns U251 CNS.
The subject of assay [8] is HCT-15 colon.
Assay [9] concerns MOLT-4 leukemia.
Assay [10] has as its system M14 melanoma.

Turning to `Cc1cnc2ccc(C)c([N+](=O)[O-])c2c1NCCCN(C)C`, the TGI in assay [1], in [2], in assay [3], in assay [4], in [5] and in assay [6] was over 100 µM each time. The TGI in assay [7], in [8], in assay [9] and in [10] was over 100 µM throughout.
For the compound `C=CCNC(=O)NCCCCC(NC(C)=O)C(=O)NCc1ccccc1` (stereo not given), the TGI in [1], in assay [2], in assay [3], in assay [4], in assay [5] and in [6] was over 100 µM in each case. Besides, the TGI in assay [7], in assay [8], in [9] and in [10] was over 100 µM throughout.
For `COc1ccc(/C=C\c2cc(OC)c(OC)c(OC)c2)cc1OCC(=O)Nc1nc2ccc(F)cc2s1`, the GI50 was 7.3 µM in assay [1]; over 100 µM in [2]; 2920 nM in [3]; 9.99 µM in assay [4]; 4.61 µM in [5]; 4.29 µM in [6]. Moreover, the GI50 was 4.33 µM in assay [7], 8.19 µM in assay [8], 3.07 µM in [9] and 6.82 µM in [10]. In addition, the TGI in assay [1], in assay [2], in [3], in assay [4], in [5] and in [6] was over 100 µM each time. The TGI in [7], in assay [8], in assay [9] and in assay [10] was over 100 µM each time.
